Data: US9289490B2, “Combinations and uses thereof” (MORPHOSYS AG, priority 2010, dated 2016)
Values joined by “and” are separate entries in the source; they are usually repeats but may differ in a detail not shown here. Equal entries are not always repeated.

Test system: AMO-1 cells
Test: ADCC with human PBMCs, flow cytometry (CalceinAM/PI)
Type: cell-based
Method: For Tables 3b-c, “Theoretical Combination” represents the addition of the values of MOR202 alone and the values of LEN alone. The normalized data of Table 3b is calculated as follows. Therefore, the specific killing values of Table 3b are calculated by subtracting the values of the controls. Then the specific killing values are compared to the MOR202 group, which is set as 1.
The constant m determines the shape of the dose-effect curve. We used Excel Fit software to carry out a linear regression calculation to estimate the parameters m and D50.
The CI-isobol method provides a quantitative assessment of synergism between drugs. A combination index (CI) is estimated from dose-effect data of single and combined drug treatments. […] Formally, the combination index (CI) of a combined drug treatment is defined as CI=D1/Dx1+D2/Dx2
The data is analysed in the following way: Antagonistic(AB)/C<(A/C)×(B/C) Additive(AB)/C=(A/C)×(B/C) Synergistic(AB)/C>(A/C)×(B/C) where A is the treatment with LEN alone; B is the treatment with MOR202 alone; C is response to the treatment vehicle; AB is combination of treatments A and B.

With `Nc1cccc2c1CN(C1CCC(=O)NC1=O)C2=O` (centres unmarked) [LEN, lenalidomide] the “Cell killing by lenalidomide alone (in words)” value (AMO-1 cells) was “no effect on AMO-1 cells regarding cell killing”, the “Enhancement of MOR202 ADCC activity by LEN (in words)” value (AMO-1 cells, Clarke et al. all 6 experiments, Chou et al. 6 out of 6) was “synergistically enhanced MOR202 ADCC activity” and the “Normalized specific killing, theoretical combination set as 1, AVERAGE (Table 3c)” value (PBMCs and AMO-1 cells treated with LEN, MOR202 0.42 μg/ml, LEN 5 μM, average of 3 experiments) was 0.2. For the same compound, the “% dead cells (raw data, Table 4a)” value (only PBMCs (effector cells) treated with LEN before MOR202, LEN 10 μM, MOR202 and MOR03207 15 μg/ml, Exp. 1-3) was 17.93 % dead cells and 15.33 % dead cells and 12.98 % dead cells and the “Normalized specific killing, theoretical combination set as 1, AVERAGE (Table 4c)” value (only effector cells treated with LEN, MOR202 0.42 μg/ml, LEN 5 μM, average of 3 experiments) was 0.1.
